Measurements published in patent US20060013770A1, “Method for screening for compounds as potential sedatives or anxiolytics” (priority 2002, published 2006).

Columns and labels:
HPA axis [1] = assay: Effect on plasma corticosterone (HPA axis activity) in mice, radioimmunoassay; type: in vivo, NMRI mice
HPA axis [2] = assay: Time course of the effect on the HPA axis (plasma ACTH and corticosterone), FIG. 2; type: in vivo; conditions: 10 mg/kg
Method: One example of measuring the activity of the HPA axis is as follows: The animal Is treated with the NCE and sacrificed within an hour. As the release of ACTH occurs within an hour after the stimulation of the CRF neurons, animals are sacrificed at t=0, 5, 15, 30 and 60 minutes after administration. Trunk blood is taken, serum separated and levels of ACTH is measured in the serum by specific radioimmunoassay. Similarly, the level of glucocortcosteroids are determined at t=0, 30, 60, and 120 minutes (the response occurs somewhat later than ACTH) using a radioimmunoassay.

HPA axis [3] = conditions: at the level of the hypothalamic CRF neurons; cited from earlier work
[4] = i.p., 60 minutes after administration

Cc1ccc(-c2nc3ccc(C)cn3c2CC(=O)N(C)C)cc1 [Zolpidem, zolpidem]
effect on plasma corticosterone at 25 mg/kg compared with 12.5 mg/kg (HPA axis [1]; i.p., 25 mg/kg, 60 minutes after administration): not further increased | dose at which the effect on plasma corticosterone reached a maximum (HPA axis [1]; [4]): 12.5 mg/kg | doses from which plasma corticosterone is significantly increased (HPA axis [1]; [4]): ≥ 0.5 mg/kg | effect on plasma corticosterone (HPA axis [1]; i.p., 60 minutes after administration, increasing doses): significantly and dose-dependently increased plasma corticosterone | time course of plasma ACTH and corticosterone (HPA axis [2]): The rise in plasma ACTH precedes the rise in corticosterone

Cn1ncnc1COc1nn2c(-c3cc(F)ccc3F)nnc2cc1C(C)(C)C [L-838,417]
effect on plasma corticosterone (HPA axis [1]; 12.5 mg/kg, 2 h after administration): no effects on plasma corticosterone was observed | effect on corticosterone (HPA axis [1]; i.p., doses up to 12.5 mg/kg, 60 minutes after administration): no effect

CN1C(=O)CN=C(c2ccccc2)c2cc(Cl)ccc21 [Diazepam]
effect on the HPA axis (HPA axis [3]): slightly stimulate the HPA axis
